{
  "source": "patent US8740843B2",
  "about": "“Coated balloon catheter” (Cook Medical Technologies LLC, priority 2009, dated 2014)",
  "test": "Elution of paclitaxel from coated balloon catheter assemblies in porcine serum elution medium (HPLC)",
  "assay_type": "physicochemical",
  "conditions": "contrast media vs saline",
  "experimental": "The rate of paclitaxel elution in each of the paclitaxel-coated balloon catheter assemblies described in Example 1 is analyzed in a porcine serum at 37° C. The coated balloon catheter assemblies are then divided into two groups, A and B. The coated balloon catheter assembly in Group A is designated to deliver a saline solution through the apertures of the outer balloon, while the coated balloon catheter assembly in Group B is designated to deliver a contrast media through the apertures of the outer balloon. The contrast media used is ISOVUE®-370 of Bracco Diagnostics (Princeton, N.J.), which included 370 mgl/mL of Iopamidol.\nThe coated balloon catheter assemblies, expanded to 4 ATM, is contacted with the porcine serum elution medium and continuously stirred for a desired period of time (e.g., at least one hour) selected to gradually dissolve the paclitaxel at a rate similar to dissolution in blood. […] The amount of the paclitaxel dissolved is measured as a function of time by monitoring with High Performance Liquid Chromatography (HPLC) the porcine serum elution medium after contact with the coated balloon catheter assembly. […] The outer balloon of each of the coated balloon catheter assemblies is then detached from the assembly and analyzed using HPCL to measure the amount of paclitaxel left on the coated outer balloon after being in contact with the elution medium for 60 minutes.",
  "data": [
    {"smiles": "CC(=O)O[C@H]1C(=O)[C@@]2(C)[C@H]([C@H](OC(=O)c3ccccc3)[C@]3(O)C[C@H](OC(=O)[C@H](O)[C@@H](NC(=O)c4ccccc4)c4ccccc4)C(C)=C1C3(C)C)[C@]1(OC(C)=O)CO[C@@H]1C[C@@H]2O", "note": "[paclitaxel]", "values": [
      {"measurement": "lower amount of PTX on the outer balloon than Group A balloon catheters", "setting": "after 60 minutes", "value": "≤ 15", "unit": "%"},
      {"measurement": "PTX elutes faster than Group A balloon catheters", "setting": "time period of 2 to 10 minutes", "value": "2-3 times"}
    ]}
  ]
}
